Data published in ChEMBL document CHEMBL5500378, “Discovery of 4-benzylpiperazinequinoline BChE inhibitor that suppresses neuroinflammation for the treatment of Alzheimer's disease” (Eur J Med Chem, 2024).

Legend:
Cholinesterase [1] = target: Cholinesterase (Equus caballus, UniProt P81908); experiment: Inhibition of equine serum BChE using BTC as substrate incubated for 2 mins by Ellman's method; assay type: cell-free
Cholinesterase [2] = target: T1, Cholinesterase (Homo sapiens, UniProt P06276); experiment: Inhibition of human BChE using BTC as substrate incubated for 2 mins by Ellman's method
T1 sequence (P06276 whole entry): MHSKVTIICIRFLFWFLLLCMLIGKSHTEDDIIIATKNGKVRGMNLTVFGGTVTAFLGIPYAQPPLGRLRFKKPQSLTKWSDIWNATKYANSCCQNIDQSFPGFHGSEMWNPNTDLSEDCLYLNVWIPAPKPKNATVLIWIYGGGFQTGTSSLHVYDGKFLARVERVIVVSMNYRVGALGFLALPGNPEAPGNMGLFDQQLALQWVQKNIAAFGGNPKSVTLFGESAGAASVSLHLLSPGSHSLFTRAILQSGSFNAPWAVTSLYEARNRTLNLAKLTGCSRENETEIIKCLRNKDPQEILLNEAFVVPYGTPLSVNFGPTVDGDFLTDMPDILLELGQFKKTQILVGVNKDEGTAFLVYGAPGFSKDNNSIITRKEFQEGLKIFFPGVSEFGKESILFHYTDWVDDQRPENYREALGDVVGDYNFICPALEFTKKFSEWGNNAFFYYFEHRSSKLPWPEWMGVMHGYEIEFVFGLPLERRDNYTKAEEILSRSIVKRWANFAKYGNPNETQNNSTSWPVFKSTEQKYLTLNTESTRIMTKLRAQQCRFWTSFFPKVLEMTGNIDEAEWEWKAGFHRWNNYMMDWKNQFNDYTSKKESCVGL

[3] = target: Acetylcholinesterase (Electrophorus electricus) (UniProt O42275); experiment: Inhibition of electric eel AChE using ATC as substrate at 10 uM incubated for 2 mins by Ellman's method relative to control
Chain of Acetylcholinesterase (Electrophorus electricus) (O42275 24-633 limits assumed): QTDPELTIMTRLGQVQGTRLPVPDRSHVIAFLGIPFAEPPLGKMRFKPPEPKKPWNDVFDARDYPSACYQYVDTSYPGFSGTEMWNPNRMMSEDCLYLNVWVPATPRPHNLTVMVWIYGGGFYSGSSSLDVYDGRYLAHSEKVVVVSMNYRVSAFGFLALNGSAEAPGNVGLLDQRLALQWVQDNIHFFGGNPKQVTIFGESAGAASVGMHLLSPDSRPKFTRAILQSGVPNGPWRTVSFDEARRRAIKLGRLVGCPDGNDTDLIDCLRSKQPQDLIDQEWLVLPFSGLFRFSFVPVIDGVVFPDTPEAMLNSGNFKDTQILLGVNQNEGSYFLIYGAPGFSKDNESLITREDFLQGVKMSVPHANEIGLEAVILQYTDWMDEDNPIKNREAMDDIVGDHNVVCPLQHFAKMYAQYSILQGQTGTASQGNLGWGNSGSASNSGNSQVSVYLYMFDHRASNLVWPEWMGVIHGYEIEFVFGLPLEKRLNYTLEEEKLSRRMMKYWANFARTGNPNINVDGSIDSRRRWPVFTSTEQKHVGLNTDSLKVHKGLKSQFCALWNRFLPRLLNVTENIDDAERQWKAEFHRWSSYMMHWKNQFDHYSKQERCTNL

[4] = tested on: Antioxidant response element; experiment: Induction of ARE in human HepG2-ARE-C8 cells incubated for 24 hrs by luciferase based assay; assay type: cell-based; details: HepG2-ARE-C8, 24 h
Cholinesterase [5] = target: T1, Cholinesterase; experiment: Inhibition of human BChE using BTC as substrate at 10 uM incubated for 2 mins by Ellman's method relative to control
Acetylcholinesterase = Acetylcholinesterase (Electrophorus electricus, UniProt O42275); experiment: Inhibition of electric eel AChE using ATC as substrate incubated for 2 mins by Ellman's method
Chain of Acetylcholinesterase (O42275 whole entry): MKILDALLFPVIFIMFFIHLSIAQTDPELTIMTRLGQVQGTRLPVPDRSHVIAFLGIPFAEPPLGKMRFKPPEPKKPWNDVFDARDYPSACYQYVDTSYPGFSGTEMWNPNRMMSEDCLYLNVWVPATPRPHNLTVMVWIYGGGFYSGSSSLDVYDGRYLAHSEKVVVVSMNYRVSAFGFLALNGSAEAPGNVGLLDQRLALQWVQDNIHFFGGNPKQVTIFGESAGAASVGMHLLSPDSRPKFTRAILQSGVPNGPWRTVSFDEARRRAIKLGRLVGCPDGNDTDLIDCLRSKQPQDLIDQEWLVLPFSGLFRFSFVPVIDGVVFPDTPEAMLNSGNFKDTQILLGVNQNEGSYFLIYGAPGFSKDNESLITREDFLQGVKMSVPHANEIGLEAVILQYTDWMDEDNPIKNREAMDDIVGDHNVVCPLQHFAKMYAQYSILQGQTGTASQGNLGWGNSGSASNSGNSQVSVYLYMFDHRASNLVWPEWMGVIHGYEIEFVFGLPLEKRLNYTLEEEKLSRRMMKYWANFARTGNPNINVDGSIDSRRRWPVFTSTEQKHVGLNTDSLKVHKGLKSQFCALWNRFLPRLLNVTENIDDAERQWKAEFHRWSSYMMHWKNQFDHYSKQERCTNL

[6] = Metabolic stability in human liver microsomes assessed as half life at 2 uM incubated for 60 mins by LC-MS/MS analysis; assay type: ADME, Microsome
[7] = target: Cholinesterase (Equus caballus) (UniProt P81908); experiment: Inhibition of equine serum BChE using BTC as substrate at 10 uM incubated for 2 mins by Ellman's method relative to control; assay type: cell-free
Chain of Cholinesterase (Equus caballus) (P81908 whole entry): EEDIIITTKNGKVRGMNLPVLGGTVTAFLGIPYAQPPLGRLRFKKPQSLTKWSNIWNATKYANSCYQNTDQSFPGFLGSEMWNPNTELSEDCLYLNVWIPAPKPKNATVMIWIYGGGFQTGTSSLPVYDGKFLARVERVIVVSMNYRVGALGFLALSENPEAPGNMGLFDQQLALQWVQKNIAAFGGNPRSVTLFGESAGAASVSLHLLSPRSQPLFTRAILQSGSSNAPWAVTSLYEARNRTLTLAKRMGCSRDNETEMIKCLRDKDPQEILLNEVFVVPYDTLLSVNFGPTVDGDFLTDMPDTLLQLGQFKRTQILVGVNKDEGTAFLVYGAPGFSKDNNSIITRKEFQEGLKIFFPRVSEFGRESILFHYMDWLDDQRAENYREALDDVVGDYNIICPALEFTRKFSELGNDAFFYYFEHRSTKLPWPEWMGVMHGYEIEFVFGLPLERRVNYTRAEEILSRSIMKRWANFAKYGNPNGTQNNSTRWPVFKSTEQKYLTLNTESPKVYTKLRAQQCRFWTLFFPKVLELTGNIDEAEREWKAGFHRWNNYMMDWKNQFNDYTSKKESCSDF

Chain of Cholinesterase (Equus caballus, UniProt P81908) (P81908 whole entry): as above

| SMILES | IC50 (Cholinesterase [1]) | IC50 (Cholinesterase [2]) | inhibition [3] | EC50 [4] | inhibition (Cholinesterase [5]) | IC50 (Acetylcholinesterase) | half-life at 2 µM [6] | inhibition [7] |
| --- | --- | --- | --- | --- | --- | --- | --- | --- |
| O=C(Nc1cnc2ccccc2c1N1CCN(Cc2ccccc2)CC1)c1cccc2ccccc12 | 140 nM | 4130 nM | < 50% |  |  |  |  |  |
| CC(C)(C)c1cc(O)ccc1O [E319] |  |  |  | 25.6 µM |  |  |  |  |
| Cc1ccccc1C(=O)Nc1cnc2ccccc2c1N1CCN(Cc2ccccc2)CC1 | 2240 nM | 1200 nM | < 50% |  |  |  |  |  |
| Cc1ccc(C(=O)Nc2cnc3ccccc3c2N2CCN(Cc3ccccc3)CC2)cc1 | 160 nM | 770 nM | < 50% |  |  |  |  |  |
| O=C(Nc1cnc2ccccc2c1N1CCN(Cc2ccccc2)CC1)c1ccccc1Cl | 180 nM | 1130 nM | < 50% |  |  |  |  |  |
| O=C(Nc1cnc2ccccc2c1N1CCN(Cc2ccccc2)CC1)c1cccc(Cl)c1 | 1580 nM |  | < 50% |  | < 50% |  |  |  |
| O=C(Nc1cnc2ccccc2c1N1CCN(Cc2ccccc2)CC1)c1ccc(F)cc1 | 3310 nM |  | < 50% |  | < 50% |  |  |  |
| O=C(Nc1cnc2ccccc2c1N1CCN(Cc2ccccc2)CC1)C1CCCCC1 | 11900 nM |  |  |  | < 50% | 2.02 µM |  |  |
| O=C(Cc1cccc([N+](=O)[O-])c1)Nc1cnc2ccccc2c1N1CCN(Cc2ccccc2)CC1 | 6270 nM |  | < 50% |  | < 50% |  |  |  |
| N#Cc1ccc(C(=O)Nc2cnc3ccccc3c2N2CCN(Cc3ccccc3)CC2)cc1 | 7610 nM |  | < 50% |  | < 50% |  |  |  |
| O=C(Nc1cnc2ccccc2c1N1CCN(Cc2ccccc2)CC1)c1ccco1 | 420 nM |  |  |  | < 50% | 4.22 µM |  |  |
| O=C(Nc1cnc2ccccc2c1N1CCN(Cc2ccccc2)CC1)c1cccc([N+](=O)[O-])c1 | 1300 nM |  | < 50% |  | < 50% |  |  |  |
| CCc1ccc(C(=O)Nc2cnc3ccccc3c2N2CCN(Cc3ccccc3)CC2)cc1 | 2650 nM |  | < 50% |  | < 50% |  |  |  |
| COc1ccc(C(=O)Nc2cnc3ccccc3c2N2CCN(Cc3ccccc3)CC2)cc1 | 180 nM |  | < 50% |  | < 50% |  |  |  |
| O=C(Nc1cnc2ccccc2c1N1CCN(Cc2ccccc2)CC1)c1cccs1 | 210 nM |  |  |  | < 50% | 4.04 µM |  |  |
| O=C(Nc1cnc2ccccc2c1N1CCN(Cc2ccccc2)CC1)c1ccc(Br)cc1 | 1270 nM |  | < 50% |  | < 50% |  |  |  |
| O=C(Nc1cnc2ccccc2c1N1CCN(Cc2ccccc2)CC1)c1ccc([N+](=O)[O-])cc1 | 700 nM |  | < 50% |  | < 50% |  |  |  |
| Cc1cccc(C(=O)Nc2cnc3ccccc3c2N2CCN(Cc3ccccc3)CC2)c1 | 360 nM |  | < 50% |  | < 50% |  |  |  |
| Cc1ccc(C(=O)Nc2cnc3ccccc3c2N2CCN(Cc3ccccc3)CC2)c(C)c1 | 400 nM | 3520 nM |  |  |  | 3.77 µM |  |  |
| O=C(Cc1ccccc1Cl)Nc1cnc2ccccc2c1N1CCN(Cc2ccccc2)CC1 | 770 nM | 1150 nM | < 50% |  |  |  |  |  |

| SMILES | IC50 (Cholinesterase [1]) | IC50 (Cholinesterase [2]) | inhibition [3] | EC50 [4] | inhibition (Cholinesterase [5]) | IC50 (Acetylcholinesterase) | half-life at 2 µM [6] | inhibition [7] |
| --- | --- | --- | --- | --- | --- | --- | --- | --- |
| O=C(Nc1cnc2ccccc2c1N1CCN(Cc2ccccc2)CC1)c1ccc(Cl)cc1Cl | 230 nM | 2410 nM | < 50% |  |  |  |  |  |
| O=C(CCc1ccccc1)Nc1cnc2ccccc2c1N1CCN(Cc2ccccc2)CC1 | 440 nM | 5390 nM | < 50% |  |  |  |  |  |
| Cc1cccc(C(=O)Nc2cnc3ccccc3c2N2CCN(Cc3ccccc3)CC2)n1 | 3320 nM |  | < 50% |  | < 50% |  |  |  |
| COc1cccc(C(=O)Nc2cnc3ccccc3c2N2CCN(Cc3ccccc3)CC2)c1 | 300 nM |  | < 50% |  | < 50% |  |  |  |
| O=C(Nc1cnc2ccccc2c1N1CCN(Cc2ccccc2)CC1)c1ccc(F)cc1F | 460 nM |  | < 50% |  | < 50% |  |  |  |
| O=C(Nc1cnc2ccccc2c1N1CCN(Cc2ccccc2)CC1)c1ccc([N+](=O)[O-])c([N+](=O)[O-])c1 | 9040 nM |  | < 50% |  | < 50% |  |  |  |
| O=C(Nc1cnc2ccccc2c1N1CCN(Cc2ccccc2)CC1)C1CCCC1 | 15100 nM |  |  |  | < 50% | 1.34 µM |  |  |
| COc1ccccc1C(=O)Nc1cnc2ccccc2c1N1CCN(Cc2ccccc2)CC1 | 180 nM | 18400 nM | < 50% |  |  |  |  |  |
| O=C(Cc1ccccc1)Nc1cnc2ccccc2c1N1CCN(Cc2ccccc2)CC1 | 590 nM | 9230 nM | < 50% |  |  |  |  |  |
| Cc1ccc(CC(=O)Nc2cnc3ccccc3c2N2CCN(Cc3ccccc3)CC2)cc1 | 4730 nM |  | < 50% |  | < 50% |  |  |  |
| O=C(Nc1cnc2ccccc2c1N1CCN(Cc2ccccc2)CC1)c1ccc2ccccc2c1 | 600 nM | 12000 nM | < 50% |  |  |  |  |  |
| O=C(Nc1cnc2ccccc2c1N1CCN(Cc2ccccc2)CC1)c1ccccc1 | 3060 nM | 1680 nM | < 50% |  |  |  | 9.4 min |  |
| CCCCc1ccc(C(=O)Nc2cnc3ccccc3c2N2CCN(Cc3ccccc3)CC2)cc1 | 130 nM | 550 nM | < 50% |  |  |  |  |  |
| CC(C)c1ccc(C(=O)Nc2cnc3ccccc3c2N2CCN(Cc3ccccc3)CC2)cc1 | 1180 nM |  | < 50% |  | < 50% |  |  |  |
| CCCCCc1ccc(C(=O)Nc2cnc3ccccc3c2N2CCN(Cc3ccccc3)CC2)cc1 | 170 nM | 1590 nM | < 50% |  |  |  |  |  |
| O=C(Nc1cnc2ccccc2c1N1CCN(Cc2ccccc2)CC1)c1ccc(Cl)cc1 | 400 nM | 4330 nM | < 50% |  |  |  |  |  |
| Cc1cccc(CC(=O)Nc2cnc3ccccc3c2N2CCN(Cc3ccccc3)CC2)c1 | 430 nM | 10700 nM | < 50% |  |  |  |  |  |
| O=C(Cc1ccc(Cl)cc1)Nc1cnc2ccccc2c1N1CCN(Cc2ccccc2)CC1 | 960 nM |  | < 50% |  | < 50% |  |  |  |
| O=C(Nc1cnc2ccccc2c1N1CCN(Cc2ccccc2)CC1)c1ccccn1 | 280 nM | 2660 nM | < 50% |  |  |  |  |  |
| O=C(Nc1cnc2ccccc2c1N1CCN(Cc2ccccc2)CC1)C1CCCO1 (centres undefined) |  |  | < 50% |  | < 50% |  |  | < 50% |
